Here are results for four compounds from ChEMBL document CHEMBL3132853, “Facile synthesis of a polyether-tethered dimeric berberine as a highly effective DNA-cleaving agent in the presence of Cu(ii) ion” (Medchemcomm, 2013).

SMILES strings stand for the structures. Activity calls are given as the source filed them. The rule behind the calls is not given here.

Assay [1] concerns Escherichia coli. The assay is described as follows: Induction of Escherichia coli pBR322 DNA cleavage at 0.06 mM after 5 hrs by agarose gel electrophoresis in presence of Cu2+ and t-BuOH.
Assay [2] has as its system Escherichia coli. Nature of the assay: Induction of Escherichia coli pBR322 DNA cleavage assessed as conversion of supercoiled form into open circular form after 5 hrs by agarose gel electrophoresis in presence of Cu2+.
Assay [3] relates to Escherichia coli. The assay is described as follows: Induction of Escherichia coli pBR322 DNA cleavage assessed as conversion of supercoiled form into open circular form after 5 hrs by agarose gel electrophoresis in presence of Mg2+.
Assay [4] relates to DNA. Nature of the assay: Binding affinity to calf thymus DNA. The conditions noted are these: Bos taurus. Type of assay: nucleic-acid assay.
Assay [5] deals with Escherichia coli. The assay is described as follows: Induction of Escherichia coli pBR322 DNA cleavage at 0.08 mM after 5 hrs by agarose gel electrophoresis.
Assay [6] deals with Escherichia coli. Nature of the assay: Induction of Escherichia coli pBR322 DNA cleavage at 0.01 to 0.08 mM after 5 hrs by agarose gel electrophoresis in presence of Cu2+.
For assay [7], the system named is Escherichia coli. Nature of the assay: Induction of Escherichia coli pBR322 DNA cleavage assessed as conversion of supercoiled form into open circular form after 5 hrs by agarose gel electrophoresis in presence of Zn2+.
In assay [8] the test system is Escherichia coli. The assay is described as follows: Induction of Escherichia coli pBR322 DNA cleavage assessed as conversion of supercoiled form into open circular form after 5 hrs by agarose gel electrophoresis in presence of Ni2+.
Assay [9] has as its system Escherichia coli. The assay is described as follows: Induction of Escherichia coli pBR322 DNA cleavage assessed as conversion of supercoiled form into open circular form after 5 hrs by agarose gel electrophoresis in presence of Mn2+.
The test system of assay [10] is Escherichia coli. The assay is described as follows: Induction of Escherichia coli pBR322 DNA cleavage assessed as maximal catalytic rate constant at 0.12 mM by agarose gel electrophoresis in presence of Cu2+.
In assay [11] the test system is Escherichia coli. Nature of the assay: Induction of Escherichia coli pBR322 DNA cleavage assessed as conversion of supercoiled form into open circular form after 5 hrs by agarose gel electrophoresis in presence of Co2+.
In assay [12] the test system is Escherichia coli. Nature of the assay: Induction of Escherichia coli pBR322 DNA cleavage at 0.06 mM after 5 hrs by agarose gel electrophoresis in presence of Cu2+ and KI.
Assay [13] concerns Escherichia coli. The assay is described as follows: Induction of Escherichia coli pBR322 DNA cleavage at 0.06 mM after 5 hrs by agarose gel electrophoresis in presence of Cu2+ and TMP.
For assay [14], the system named is Escherichia coli. Nature of the assay: Induction of Escherichia coli pBR322 DNA cleavage at 0.06 mM after 5 hrs by agarose gel electrophoresis in presence of Cu2+ and DMSO.
For assay [15], the system named is Escherichia coli. Nature of the assay: Induction of Escherichia coli pBR322 DNA cleavage at Cu2+ to compound ratio >= 1 after 5 hrs by agarose gel electrophoresis.
Assay [16] deals with DNA. Nature of the assay: Binding affinity to calf thymus DNA in presence of Cu2+. The following applies: Bos taurus. It is filed as nucleic-acid assay.
The test system of assay [17] is Escherichia coli. Nature of the assay: Induction of Escherichia coli pBR322 DNA cleavage assessed as conversion of supercoiled form into linear form after 5 hrs by agarose gel electrophoresis in presence of Cu2+.

With `COc1ccc2cc3[n+](cc2c1OCCOCCOCCOCCOc1c(OC)ccc2cc4[n+](cc12)CCc1cc2c(cc1-4)OCO2)CCc1cc2c(cc1-3)OCO2`, the outcome in the assay with Escherichia coli [1], with Escherichia coli [2], in the assay with Escherichia coli [6], in the assay on Escherichia coli [13], in the assay on Escherichia coli [14] and in the assay with Escherichia coli [15] was Active. For the same compound, the result with Escherichia coli [17] was Active. The outcome with Escherichia coli [3], in the assay with Escherichia coli [5], with Escherichia coli [7], in the assay with Escherichia coli [8], with Escherichia coli [9] and with Escherichia coli [11] was inactive. In the assay with Escherichia coli [12], the result was inactive. Further, the K in the assay with DNA [4] is 1.51 ×10⁴ /M; in the assay with DNA [16], 2.38 ×10⁴ /M. For the same compound, the Kmax in the assay with Escherichia coli [10] is 125 h⁻¹.
With `COc1ccc2cc3[n+](cc2c1OCCCOc1c(OC)ccc2cc4[n+](cc12)CCc1cc2c(cc1-4)OCO2)CCc1cc2c(cc1-3)OCO2`, in the assay on Escherichia coli [2], the result was inactive. Moreover, the K in the assay with DNA [4] turned out to be 1.15 ×10⁵ /M.
Turning to `COCCOCCOCCOCCOc1c(OC)ccc2cc3[n+](cc12)CCc1cc2c(cc1-3)OCO2`, in the assay with Escherichia coli [2], the result was inactive. Also, in the assay on DNA [4], the K is 1.46 ×10³ /M.
As to `COc1ccc2cc3[n+](cc2c1OC)CCc1cc2c(cc1-3)OCO2`, the K with DNA [4] was 8.99 ×10³ /M.
